Measurements: US12503452B2 (Curza Global, LLC, priority 2019, dated 2025)
Counter-ions that a name gives are not always drawn. Like-named read-outs stand apart in the source and are kept apart here.

Assays:
[1] = system: E. coli S30 extract (bacterial protein synthesis); assay: E. coli S30 extract coupled transcription-translation luciferase assay (inhibition of bacterial protein synthesis); assay type: biochemical; settings: class by IC50 or % inhibition @ 1 μM, read-out: S30 IC50 (μM/% inhib.)
Method in brief: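 Cell-free coupled transcription-translation in E. coli S30 circular-DNA extract, with pBESTluc plasmid as template and complete amino acid mix. Eight 2-fold compound dilutions were incubated with the extract 1 h at 37 °C, chilled, then luciferase luminescence was read. % inhibition was taken relative to no-inhibitor wells; no-DNA wells gave background.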

[2] = system: S. aureus (Sa); assay: Broth microdilution minimum inhibitory concentration (MIC); assay type: cell-based; settings: Staphylococcus aureus, read-out: Sa + bicarb MIC
Method in brief: (§1)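 CLSI broth microdilution (M07-A9, slightly modified) in CAMHB, optionally with 6.25 or 25 mM sodium bicarbonate or 0–50% heat-inactivated human serum. Two-fold serial dilutions (8 concentrations, triplicate) were inoculated at 5×10^4 CFU/well from 0.5 McFarland cultures grown at 35±2 °C.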

[3] = system: P. aeruginosa (Pa); assay: as above; assay type: cell-based; settings: Pseudomonas aeruginosa, read-out: Pa MIC + bicarb
Method in brief: as §1

[4] = system: E. coli (Ec); assay: as above; assay type: cell-based; settings: Escherichia coli, read-out: E. coli + bicarb MIC
Method in brief: as §1

[5] = system: E. faecalis (Ef); assay: as above; assay type: cell-based; settings: Enterococcus faecalis, read-out: Ef + bicarb MIC
Method in brief: as §1

[6] = system: A. baumannii (Ab); assay: as above; assay type: cell-based; settings: Acinetobacter baumannii, read-out: Ab + bicarb MIC
Method in brief: as §1

[7] = biological target: Rabbit Reticulocyte Lysate (eukaryotic protein synthesis); assay: Rabbit reticulocyte lysate luciferase assay (inhibition of eukaryotic protein synthesis); assay type: biochemical; settings: class by IC50 or % inhibition @ 1 μM, read-out: Rabbit reticulocyte IC50 (μM/% inhib.)
Method in brief: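 Nuclease-treated rabbit reticulocyte lysate translating luciferase control RNA, with complete amino acids, was incubated at 30° C. for 90 minutes with 2-fold serial compound dilutions. Luminescence was measured after adding luciferase reagent. % inhibition was relative to water controls, with no-RNA wells as background.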

[8] = S. aureus, growth medium with sodium bicarbonate
[9] = P. aeruginosa, growth medium with sodium bicarbonate
[10] = E. coli, growth medium with sodium bicarbonate
[11] = E. faecalis, growth medium with sodium bicarbonate
[12] = A. baumannii, growth medium with sodium bicarbonate
[13] = S. aureus, growth medium supplemented with sodium bicarbonate
[14] = P. aeruginosa, growth medium supplemented with sodium bicarbonate
[15] = E. coli, growth medium supplemented with sodium bicarbonate
[16] = E. faecalis, growth medium supplemented with sodium bicarbonate
[17] = A. baumannii, growth medium supplemented with sodium bicarbonate

SMILES	IC50 [1]	MIC [2, 8]	MIC [3, 9]	MIC [4, 10]	MIC [5, 11]	MIC [6, 12]	IC50 [7]	MIC [2, 13]	MIC [3, 14]	MIC [4, 15]	MIC [5, 16]	MIC [6, 17]	MIC [2]	MIC [3]	MIC [4]	MIC [5]	MIC [6]
Cc1cc(-n2ccc(NC(=O)N3CCN(C(=O)C(C)(C)N)CC3)nc2=O)ccc1CN(CC1CC1)C1CCC(N)CC1 (stereo not shown) [Compound 270]	< 0.5 µM	< 8 µg/mL	8 to 32 µg/mL	< 8 µg/mL	< 8 µg/mL	< 8 µg/mL	> 1 µM	–	–	–	–	–	–	–	–	–	–
CCN(Cc1ccc(-n2ccc(NC(=O)N3CCN(C(=O)C(C)(C)N)CC3)nc2=O)cc1)CC1CC(N)C1 (stereo not shown) [Compound 128]	< 0.5 µM	–	–	–	–	–	> 1 µM	< 8 µg/mL	8 to 32 µg/mL	< 8 µg/mL	< 8 µg/mL	> 32 µg/mL	–	–	–	–	–
CC(CN1CC(N)C1)Oc1ccc(-n2ccc(NC(=O)N3CCN(C(=O)C(C)(C)N)CC3)nc2=O)cc1 (stereo not shown) [Compound 182]	> 1 µM	> 32 µg/mL	> 32 µg/mL	8 to 32 µg/mL	> 32 µg/mL	> 32 µg/mL	> 1 µM	–	–	–	–	–	–	–	–	–	–
CC[C@@H]1CN(Cc2ccc(-n3ccc(NC(=O)N4CCN(C(=O)C(C)(C)N)CC4)nc3=O)cc2)CC[C@H]1N (stereo in doubt) [Compound 213]	< 0.5 µM	< 8 µg/mL	> 32 µg/mL	< 8 µg/mL	< 8 µg/mL	> 32 µg/mL	> 1 µM	–	–	–	–	–	–	–	–	–	–
C[C@](N)(CO)C(=O)N1CCN(C(=O)Nc2ccn(-c3ccc(CNC4CCC(N)CC4)cc3)c(=O)n2)CC1 (stereo partly shown) [Compound 288]	< 0.5 µM	< 8 µg/mL	> 32 µg/mL	< 8 µg/mL	< 8 µg/mL	> 32 µg/mL	> 1 µM	–	–	–	–	–	–	–	–	–	–
NC1CCCN(CCc2ccc(-n3ccc(NC(=O)N4CC5(CC(N)C5)C4)nc3=O)cc2)CC1 (stereo not shown) [Compound 193]	< 0.5 µM	< 8 µg/mL	> 32 µg/mL	< 8 µg/mL	8 to 32 µg/mL	> 32 µg/mL	> 1 µM	–	–	–	–	–	–	–	–	–	–
C[C@@H]1CN(C(=O)Nc2ccn(-c3ccc(CCN4CCCC(N)CC4)cc3)c(=O)n2)CCN1C(=O)C(C)(C)N (stereo partly shown) [Compound 71]	< 0.5 µM	–	–	–	–	–	> 1 µM	< 8 µg/mL	8 to 32 µg/mL	< 8 µg/mL	< 8 µg/mL	< 8 µg/mL	–	–	–	–	–
CC(C)(N)C(=O)N1CCN(C(=O)Nc2ccn(-c3cccc(CCN4CC[C@H](CN)C4)c3)c(=O)n2)CC1 (stereo in doubt) [Compound 24]	< 0.5 µM	–	–	–	–	–	> 1 µM	8 to 32 µg/mL	> 32 µg/mL	8 to 32 µg/mL	> 32 µg/mL	> 32 µg/mL	–	–	–	–	–
CC(Cc1ccc(-n2ccc(NC(=O)N3CCN(C(=O)C(C)(C)N)CC3)nc2=O)cc1)N[C@@H]1CC[C@H](N)C1 (stereo partly shown) [Compound 172]	< 0.5 µM	< 8 µg/mL	> 32 µg/mL	< 8 µg/mL	< 8 µg/mL	> 32 µg/mL	> 1 µM	–	–	–	–	–	–	–	–	–	–
Cc1cc(-n2ccc(NC(=O)N3CCN(C(=O)C(C)(C)N)CC3)nc2=O)ccc1CN(C)C1CCC(N)CC1 (stereo not shown) [Compound 284]	< 0.5 µM	< 8 µg/mL	8 to 32 µg/mL	< 8 µg/mL	< 8 µg/mL	< 8 µg/mL	> 1 µM	–	–	–	–	–	–	–	–	–	–
CC(C)(N)C(=O)N1CCN(C(=O)Nc2ccn(-c3ccc(CN[C@H]4CC[C@H](N)CC4)c(F)c3)c(=O)n2)CC1 [Compound 330, 4-(2-Amino-2-methylpropanoyl)-N-(1-(4-(((trans-4-aminocyclohexyl)amino)methyl)-3-fluorophenyl)-2-oxo-1,2-dihydropyrimidin-4-yl)piperazine-1-carboxamide hydrochloride salt]	< 0.5 µM	–	–	–	–	–	> 1 µM	–	–	–	–	–	8 to 32 µg/mL	> 32 µg/mL	< 8 µg/mL	> 32 µg/mL	> 32 µg/mL
CCN(C(C)Cc1ccc(-n2ccc(NC(=O)N3CCN(C(=O)C(C)(C)N)CC3)nc2=O)cc1)[C@H]1CC[C@@H](N)C1 (stereo partly shown) [Compound 151]	< 0.5 µM	–	–	–	–	–	> 1 µM	< 8 µg/mL	8 to 32 µg/mL	< 8 µg/mL	< 8 µg/mL	> 32 µg/mL	–	–	–	–	–
CNC1CCC(N(Cc2ccc(-n3ccc(NC(=O)N4CCN(C(=O)C(C)(C)N)CC4)nc3=O)cc2)CC2CC2)CC1 (stereo not shown) [Compound 301, hydrochloride salt]	0.5 to 1 µM	–	–	–	–	–	> 1 µM	–	–	–	–	–	< 8 µg/mL	> 32 µg/mL	< 8 µg/mL	< 8 µg/mL	8 to 32 µg/mL
